Data: PubChem BioAssay (NCI)
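Tested at 5 concentrations; 48 h exposure; 96-well plates; endpoints linearly interpolated, else capped at highest concentration. TGI: concentration producing complete growth inhibition.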

Columns and labels:
Assay in all cases: NCI tumour cell line growth inhibition, 48 h
M14 melanoma = tested on: M14 melanoma
SNB-75 CNS = tested on: SNB-75 CNS
NCI-H522 lung = tested on: NCI-H522 lung
HOP-92 NSCLC = tested on: HOP-92 NSCLC
COLO 205 colon = tested on: COLO 205 colon
SF-539 CNS = tested on: SF-539 CNS
BT-549 breast = tested on: BT-549 breast
SK-MEL-5 melanoma = tested on: SK-MEL-5 melanoma
UO-31 renal = tested on: UO-31 renal
RPMI-8226 leukemia = tested on: RPMI-8226 leukemia
OVCAR-3 ovarian = tested on: OVCAR-3 ovarian
SN12C renal = tested on: SN12C renal
OVCAR-5 ovarian = tested on: OVCAR-5 ovarian
NCI-H460 lung = tested on: NCI-H460 lung
CAKI-1 renal = tested on: CAKI-1 renal
HCT-116 colon = tested on: HCT-116 colon
SK-OV-3 ovarian = tested on: SK-OV-3 ovarian
EKVX NSCLC = tested on: EKVX NSCLC
MCF7 breast = tested on: MCF7 breast
SR leukemia = tested on: SR leukemia
IGROV1 ovarian = tested on: IGROV1 ovarian
HCC-2998 colon = tested on: HCC-2998 colon
OVCAR-4 ovarian = tested on: OVCAR-4 ovarian
PC-3 prostate = tested on: PC-3 prostate
HT29 colon = tested on: HT29 colon
U251 CNS = tested on: U251 CNS
OVCAR-8 ovarian = tested on: OVCAR-8 ovarian
MDA-N = tested on: MDA-N
MDA-MB-231 breast = tested on: MDA-MB-231 breast
SW-620 colon = tested on: SW-620 colon
ACHN renal = tested on: ACHN renal
UACC-62 melanoma = tested on: UACC-62 melanoma
786-0 renal = tested on: 786-0 renal
HOP-62 NSCLC = tested on: HOP-62 NSCLC
SF-268 CNS = tested on: SF-268 CNS
CCRF-CEM leukemia = tested on: CCRF-CEM leukemia
MALME-3M melanoma = tested on: MALME-3M melanoma
A498 renal = tested on: A498 renal
SNB-19 CNS = tested on: SNB-19 CNS
UACC-257 melanoma = tested on: UACC-257 melanoma
MDA-MB-435 = tested on: MDA-MB-435
MOLT-4 leukemia = tested on: MOLT-4 leukemia
LOX IMVI melanoma = tested on: LOX IMVI melanoma
SK-MEL-28 melanoma = tested on: SK-MEL-28 melanoma
SK-MEL-2 melanoma = tested on: SK-MEL-2 melanoma
SF-295 CNS = tested on: SF-295 CNS
RXF 393 renal = tested on: RXF 393 renal
K-562 leukemia = tested on: K-562 leukemia
HCT-15 colon = tested on: HCT-15 colon
DU-145 prostate = tested on: DU-145 prostate
A549 NSCLC = tested on: A549 NSCLC
T-47D breast = tested on: T-47D breast
KM12 colon = tested on: KM12 colon
NCI/ADR-RES ovarian = tested on: NCI/ADR-RES ovarian
TK-10 renal = tested on: TK-10 renal
HS 578T breast = tested on: HS 578T breast
NCI-H226 lung = tested on: NCI-H226 lung
NCI-H23 lung = tested on: NCI-H23 lung
HL-60(TB) leukemia = tested on: HL-60(TB) leukemia

## CCN(CC)c1ccc(/C=C(\C#N)c2nc(N)nc(N3N=C(C)CC3(C)C)n2)cc1
M14 melanoma
  TGI: > 45.5 µM
SNB-75 CNS
  TGI: 28.8 µM
NCI-H522 lung
  TGI: 36.5 µM
HOP-92 NSCLC
  TGI: 22.4 µM
COLO 205 colon
  TGI: > 100 µM
SF-539 CNS
  TGI: 19.9 µM
BT-549 breast
  TGI: > 100 µM
SK-MEL-5 melanoma
  TGI: > 61 µM
UO-31 renal
  TGI: 55.4 µM
RPMI-8226 leukemia
  TGI: > 100 µM
OVCAR-3 ovarian
  TGI: 37.9 µM
SN12C renal
  TGI: 71.2 µM
OVCAR-5 ovarian
  TGI: 93.9 µM
NCI-H460 lung
  TGI: 44.5 µM
CAKI-1 renal
  TGI: 28.4 µM
HCT-116 colon
  TGI: 34.1 µM
SK-OV-3 ovarian
  TGI: 19.9 µM
EKVX NSCLC
  TGI: > 76.2 µM
MCF7 breast
  TGI: > 100 µM
SR leukemia
  TGI: > 100 µM
IGROV1 ovarian
  TGI: 34.2 µM
HCC-2998 colon
  TGI: 79.1 µM
OVCAR-4 ovarian
  TGI: 30.5 µM
PC-3 prostate
  TGI: > 100 µM
HT29 colon
  TGI: > 49.2 µM
U251 CNS
  TGI: 26.1 µM
OVCAR-8 ovarian
  TGI: 24.4 µM
MDA-N
  TGI: > 100 µM
MDA-MB-231 breast
  TGI: 26.8 µM
SW-620 colon
  TGI: > 100 µM
ACHN renal
  TGI: 27.9 µM
UACC-62 melanoma
  TGI: > 100 µM
786-0 renal
  TGI: 26.8 µM
HOP-62 NSCLC
  TGI: 23.6 µM
SF-268 CNS
  TGI: > 54 µM
CCRF-CEM leukemia
  TGI: > 100 µM
MALME-3M melanoma
  TGI: 41 µM
A498 renal
  TGI: 35.2 µM
SNB-19 CNS
  TGI: 37.1 µM
UACC-257 melanoma
  TGI: > 100 µM
MDA-MB-435
  TGI: > 100 µM
MOLT-4 leukemia
  TGI: > 100 µM
LOX IMVI melanoma
  TGI: 32.7 µM
SK-MEL-28 melanoma
  TGI: > 100 µM
SK-MEL-2 melanoma
  TGI: 34.1 µM
SF-295 CNS
  TGI: 49.7 µM
RXF 393 renal
  TGI: 23.7 µM
K-562 leukemia
  TGI: > 68.7 µM
HCT-15 colon
  TGI: > 100 µM
DU-145 prostate
  TGI: 29.3 µM
A549 NSCLC
  TGI: 32.3 µM
T-47D breast
  TGI: 39.6 µM
KM12 colon
  TGI: > 100 µM
NCI/ADR-RES ovarian
  TGI: > 49.4 µM
TK-10 renal
  TGI: 31.7 µM
HS 578T breast
  TGI: 11.4 µM
NCI-H226 lung
  TGI: 14.6 µM
NCI-H23 lung
  TGI: > 80.9 µM
HL-60(TB) leukemia
  TGI: > 100 µM

## CNC(=S)/C(=N\Nc1nc[nH]c1C(N)=O)C(N)=S
M14 melanoma
  TGI: > 100 µM
SNB-75 CNS
  TGI: 71.9 µM
NCI-H522 lung
  TGI: > 91.7 µM
HOP-92 NSCLC
  TGI: 99.4 µM
COLO 205 colon
  TGI: 41.1 µM
SF-539 CNS
  TGI: > 81.3 µM
BT-549 breast
  TGI: > 100 µM
SK-MEL-5 melanoma
  TGI: 81.3 µM
UO-31 renal
  TGI: 18.3 µM
RPMI-8226 leukemia
  TGI: 55.7 µM
OVCAR-3 ovarian
  TGI: > 50.2 µM
SN12C renal
  TGI: 18.9 µM
OVCAR-5 ovarian
  TGI: > 100 µM
NCI-H460 lung
  TGI: > 100 µM
CAKI-1 renal
  TGI: > 94.4 µM
HCT-116 colon
  TGI: > 100 µM
SK-OV-3 ovarian
  TGI: > 31.6 µM
EKVX NSCLC
  TGI: > 100 µM
MCF7 breast
  TGI: > 100 µM
SR leukemia
  TGI: 0.468 µM
IGROV1 ovarian
  TGI: > 61 µM
HCC-2998 colon
  TGI: 22.8 µM
OVCAR-4 ovarian
  TGI: > 100 µM
PC-3 prostate
  TGI: > 100 µM
HT29 colon
  TGI: > 100 µM
U251 CNS
  TGI: > 82.8 µM
OVCAR-8 ovarian
  TGI: > 57.5 µM
MDA-N
  TGI: > 63 µM
MDA-MB-231 breast
  TGI: > 24 µM
SW-620 colon
  TGI: > 92 µM
ACHN renal
  TGI: 61.8 µM
UACC-62 melanoma
  TGI: > 92.8 µM
786-0 renal
  TGI: > 100 µM
HOP-62 NSCLC
  TGI: > 100 µM
SF-268 CNS
  TGI: > 54.2 µM
MALME-3M melanoma
  TGI: > 54.8 µM
A498 renal
  TGI: > 75.6 µM
SNB-19 CNS
  TGI: > 100 µM
UACC-257 melanoma
  TGI: > 100 µM
MDA-MB-435
  TGI: > 100 µM
LOX IMVI melanoma
  TGI: > 37.9 µM
SK-MEL-28 melanoma
  TGI: > 100 µM
SK-MEL-2 melanoma
  TGI: > 82.3 µM
SF-295 CNS
  TGI: 41.6 µM
RXF 393 renal
  TGI: > 100 µM
HCT-15 colon
  TGI: > 100 µM
DU-145 prostate
  TGI: 34.9 µM
A549 NSCLC
  TGI: > 100 µM
T-47D breast
  TGI: > 89.3 µM
KM12 colon
  TGI: 24.4 µM
NCI/ADR-RES ovarian
  TGI: > 64.5 µM
TK-10 renal
  TGI: > 57.5 µM
HS 578T breast
  TGI: > 81.8 µM
NCI-H226 lung
  TGI: > 33.9 µM
NCI-H23 lung
  TGI: > 94.7 µM
HL-60(TB) leukemia
  TGI: 7.83 µM

## O=C(c1ccccc1)c1ccc(C(c2c(O)c3ccccc3oc2=O)c2c(O)c3ccccc3oc2=O)cc1
M14 melanoma
  TGI: 63.3 µM
SNB-75 CNS
  TGI: 62.4 µM
NCI-H522 lung
  TGI: 43 µM
HOP-92 NSCLC
  TGI: > 64.1 µM
COLO 205 colon
  TGI: > 73 µM
SF-539 CNS
  TGI: > 100 µM
BT-549 breast
  TGI: 48.9 µM
SK-MEL-5 melanoma
  TGI: > 68.5 µM
UO-31 renal
  TGI: 33 µM
RPMI-8226 leukemia
  TGI: 60.9 µM
OVCAR-3 ovarian
  TGI: > 56.6 µM
SN12C renal
  TGI: > 77.2 µM
OVCAR-5 ovarian
  TGI: 51.4 µM
NCI-H460 lung
  TGI: > 100 µM
CAKI-1 renal
  TGI: 25.3 µM
HCT-116 colon
  TGI: > 80.2 µM
SK-OV-3 ovarian
  TGI: 38.4 µM
EKVX NSCLC
  TGI: 72.3 µM
MCF7 breast
  TGI: > 100 µM
SR leukemia
  TGI: 59.3 µM
IGROV1 ovarian
  TGI: > 60.9 µM
HCC-2998 colon
  TGI: 50.4 µM
OVCAR-4 ovarian
  TGI: 82.9 µM
PC-3 prostate
  TGI: > 74.5 µM
HT29 colon
  TGI: > 63.5 µM
U251 CNS
  TGI: > 78.4 µM
OVCAR-8 ovarian
  TGI: > 75.1 µM
MDA-N
  TGI: > 71.7 µM
MDA-MB-231 breast
  TGI: > 71.4 µM
SW-620 colon
  TGI: > 100 µM
ACHN renal
  TGI: 48.6 µM
UACC-62 melanoma
  TGI: 39.5 µM
786-0 renal
  TGI: 48.9 µM
HOP-62 NSCLC
  TGI: > 57.3 µM
SF-268 CNS
  TGI: 64.7 µM
CCRF-CEM leukemia
  TGI: > 81.2 µM
MALME-3M melanoma
  TGI: 37.6 µM
A498 renal
  TGI: 62.6 µM
SNB-19 CNS
  TGI: 55.8 µM
UACC-257 melanoma
  TGI: 49.5 µM
MDA-MB-435
  TGI: > 74.2 µM
MOLT-4 leukemia
  TGI: 53.9 µM
LOX IMVI melanoma
  TGI: > 100 µM
SK-MEL-28 melanoma
  TGI: > 73.3 µM
SK-MEL-2 melanoma
  TGI: > 71.3 µM
SF-295 CNS
  TGI: 53.3 µM
RXF 393 renal
  TGI: > 69.2 µM
K-562 leukemia
  TGI: > 72.1 µM
HCT-15 colon
  TGI: > 95.3 µM
DU-145 prostate
  TGI: > 85.7 µM
A549 NSCLC
  TGI: > 82.5 µM
T-47D breast
  TGI: > 100 µM
KM12 colon
  TGI: 37.1 µM
NCI/ADR-RES ovarian
  TGI: 62.5 µM
TK-10 renal
  TGI: 36.7 µM
HS 578T breast
  TGI: 64.5 µM
NCI-H226 lung
  TGI: 55 µM
NCI-H23 lung
  TGI: 49 µM
HL-60(TB) leukemia
  TGI: > 100 µM
